Values joined by “and” are separate entries in the source; they are usually repeats but may differ in a detail not shown here. Identical values can stand only once. Like-named read-outs stand apart in the source and are kept apart here. Marks after values point to notes of the source that are not given here.
Legend:
[1] = Deuteron T1 determined by Inversion Recovery technique (5.8T, saline); assay type: physicochemical; settings: for T1 relaxation time of deuterons at D site / HDO T1: 5.8T, saline
Experimental: Example 1: Determinations of Deuterons T1 in Sugar Molecules
Table 1 describes the difference in T1 of deuterons in water (HDO, natural abundance) and in sites labelled with deuterons in various molecules that were determined using an Inversion Recovery technique. […] PGP-47 TI

brain slices = test: [6,6-D2]D-glucose uptake and metabolism in perfused brain slices, deuterium NMR; assay type: in vitro ADME, rat (male Sprague-Dawley); settings: for D-Glc before 1st ischemia: group A; for Minimum D-Glc during 1st ischemia: group B, 10 min perfusion arrest; for Maximal difference of D-Glc before and during 1st ischemia: group B′; for D-Glc in between ischemic conditions: group C; for Minimum D-Glc during 2nd ischemia: group D; for Maximal difference of D-Glc before and during 2nd ischemia: group D′; for D-Glc after 2nd ischemic condition: group E; for D-Lac before 1st ischemia: group F; for Maximal D-Lac during 1st ischemia: group G; for D-Lac in between ischemic conditions: group H; for Maximal D-Lac during 2nd ischemia: group I; for D-Lac after 2nd ischemic condition: group J
Description: Male Sprague-Dawley rats (n=4, 70-100 g) were obtained from the Hebrew University Authority of Biological and Biomedical Models. The joint ethics committee (IACUC) of the Hebrew University and Hadassah Medical Center approved the study protocol for animal welfare. The Hebrew University is an AAALAC International accredited institute. Care was taken to minimize the animals' pain and discomfort. Animals were housed in the animal facilities 3-5 days after delivery for acclimatization and fed ad libitum. On the experimental day, animals were transferred to the laboratory and anesthetized within one hour of arrival.
To improve the health of acute brain slices obtained from mature adult rats, we modified a slice preparation technique optimized for in vitro electrophysiology in mature adult rat brain slices. In brief, slice health is improved by a so-called “protective recovery” method. NMDG is an extracellular replacer of sodium ions that prevents sodium ions and water influx into cells, the primary insult causing cell death following brain slicing. […] Furthermore, incubation in HEPES-buffered artificial cerebrospinal fluid (aCSF) improved slice health. The following solutions were prepared in the current study, and their use is described in the sections below.
NMDG-aCSF was used for transcardial perfusion, tissue slicing, and slice recovery. This medium contained 93 mM NMDG, 2.5 mM KCl, 1.2 mM NaH2PO4, 26 mM NaHCO3, 20 mM HEPES, 25 mM D-glucose, 10 mM MgSO4, 0.5 mM CaCl2, 5 mM ascorbic acid, 2 mM thiourea, and 3 mM pyruvic acid in double distilled water.
HEPES-holding aCSF was used to incubate slices following the surgical procedure. This medium contained 84 mM NaCl, 2.5 mM KCl, 1.2 mM NaH2PO4, 30 mM NaHCO3, 20 mM HEPES, 25 mM Glc (D-glucose, non-labeled), 2 mM MgSO4, 2 mM CaCl2, 5 mM ascorbic acid, 2 mM thiourea, and 3 mM pyruvic acid in double distilled water.
Perfusion aCSF was used for perfusion in the NMR spectrometer. This medium contained 115 mM NaCl, 2.5 mM KCl, 1.2 mM NaH2PO4, 24 mM NaHCO3, 5 mM HEPES, 10 mM Glc (to be replaced with 10 mM D-Glc), 2 mM MgSO4, and 2 mM CaCl2 in double distilled water.
All three solutions (1-3) were bubbled with 95%/5% O2/CO2 for at least one hour before use and titrated to a pH of 7.35-7.45 using HCl or NaOH. All concentrations were optimized for a calculated osmolarity of 310±15 mOsm.
Brain slices were extracted and maintained using the above solutions as previously described. Briefly, the rats were anesthetized using a gas anesthesia system (Somnosuite, Kent Scientific, Torrington, CT, USA). Induction was performed in a chamber with 3.5% isoflurane in room air with a flow rate of 440 mL/min. Following 4-7 min of induction, anesthesia was maintained with 3.1-3.2% isoflurane at the same flow rate. Upon obtaining a negative pedal pain reflex, surgery was initiated. First, the diaphragm was exposed and cut, and the rat was transcardially perfused with 30 mL of ice-cold NMDG-aCSF (Solution 1). The animals were then sacrificed by decapitation, and the brain was rapidly removed and placed in ice-cold NMDG-aCSF (Solution 1). The cerebrum was then cut into four parts (first, a sagittal cut along the hemispheric cleft and then a sagittal cut in the middle of each hemisphere). From each part, 350 μm slices were prepared using a McIlwain tissue chopper (The Mickle Laboratory Engineering Company Ltd., Surrey, UK). The process of brain extraction, from decapitation till the brain was in ice-cold NMDG-aCSF, took under 2 min, and the slicing procedure was done in less than 10 min. After cutting, the slices were transferred to warm, 32-34 °C, NMDG-aCSF (Solution 1) for 12 min for protective recovery. Then, the slices were transferred to HEPES-holding aCSF (Solution 2) at ~32 °C for 15-40 min incubation before transfer to the NMR spectrometer, where the slices were perfused with the aCSF of Solution 3. […]

[2] = Adverse effects after bolus intravenous injection of DDG, mice; assay type: in vivo, mouse; settings: bolus i.v., 37 mg/kg to 248 mg/kg (mice and rats), awake up to 78 min
Experimental: (§1) Mice and rats, males and females at equal numbers, were intravenously injected with a bolus of varying doses of deuterated 2-deoxy-D-glucose (2-DG, DDG, with varying numbers and positions of deuteration). DDGs were provided by CortecNet, France. The injection was performed under sedation in all rats (18) and in 12 of 18 mice, after which the animals woke up within 1 minute. […] Further to euthanasia, the brain, liver, kidneys, heart, and muscle were excised and immediately placed in liquid nitrogen. The frozen tissue samples were kept at −80 °C until further processing.
(§2) The animals were observed awake for up to 78 min after the injection. The injection bolus was administered in less than 1 s and ranged from 0.1 mL for mice (ca. 25-40 g) to 0.6 mL for rats (ca. 120-160 g).

[3] = Adverse effects after bolus intravenous injection of DDG, rats; assay type: in vivo, rat; settings: bolus i.v., 37 mg/kg to 248 mg/kg (mice and rats), awake up to 78 min
Experimental: as §1, §2

[4] = Biodistribution of deuterated 2-deoxy-D-glucose, 2H-NMR of tissue extracts, mice; assay type: in vivo, mouse; settings: [D2]DDG bolus i.v., 169-182 mg/kg (non-labeled 2DG equivalent)
Experimental: as §1
Extraction of the water-soluble metabolites and the lipids was carried out using the dual-phase extraction procedure as described previously [Katz-Brull R, et al. Differential routing of choline in implanted breast cancer and normal organs. Article. Magnetic Resonance in Medicine. July 2001; 46(1):31-38. doi:10.1002/mrm.1157]. Briefly, a frozen sample is placed in 10 mL of ice-cold methanol containing 0.4 mM phenyl phosphonic acid for at least 1 hour. The tissue is then homogenized in ice-cold methanol using a tissue homogenizer. Equal volumes of chloroform and water are then added to the sample tube, and the mixture is vortexed and vigorously shaken. The samples are allowed to stand at 4 °C for at least 24 hours for phase separation. The methanol-water phase is aspirated, treated with Chelex to remove divalent ions, and then lyophilized for at least 24 hours. When the samples are dry (as powder), they are redissolved in 0.5 mL of double-distilled water and transferred to 5-mm NMR tubes for scanning. The samples are scanned in a 9.4 T NMR spectrometer.

[5] = position 1 (aliphatic), 16-17 °C
[6] = position 2 (aliphatic), 16-17 °C

SMILES: N[C@@H](Cc1ccc(O)cc1)C(=O)O [[D7]tyrosine]
- T1 relaxation time of deuterons at D site ([1]; aliphatic, 16-17 °C): 48 ms
- T1 relaxation time of deuterons at D site ([1]; aromatic, 16-17 °C): 43 ms

SMILES: OC[C@H]1OC(O)[C@H](O)[C@@H](O)[C@@H]1O (stereo partly drawn) [D-Glc, [6,6-D2]D-glucose]
- T1 relaxation time of deuterons at D site ([1]; aliphatic, 16-17 °C): 53 ^c ms
- time for return to baseline level upon reperfusion (brain slices; after 1st ischemic condition): ≤ 8 min
- time for return to baseline level upon reperfusion (brain slices; after 2nd ischemic condition): ≤ 8 min
- time for D-Glc signal to reach plateau (brain slices; after administration of D-Glc to perfusion medium): ≤ 6 min
- maximal decrease in the D-Glc concentration (brain slices; both ischemic conditions, n=6): 4.3 ± 0.9 mM
- conversion of available D-Glc (brain slices; during the ischemic conditions): fully converted to D-Lac
- D-Glc before 1st ischemia (brain slices; average ± SD, n=3): 8.6 ± 0.7 mM
- D-Glc before 1st ischemia (brain slices; individual animals): 9.3 mM and 8.8 mM and 7.6 mM
- Minimum D-Glc during 1st ischemia (brain slices; average ± SD, n=3): 4.6 ± 1.5 mM
- Minimum D-Glc during 1st ischemia (brain slices; individual animals): 4.7 mM and 6.4 mM and 2.8 mM
- Maximal difference of D-Glc before and during 1st ischemia (brain slices; average ± SD, n=3): 3.9 ± 1.3 mM
- Maximal difference of D-Glc before and during 1st ischemia (brain slices; individual animals): 4.6 mM and 2.4 mM and 4.8 mM
- D-Glc in between ischemic conditions (brain slices; average ± SD, n=3): 8.7 ± 0.7 mM
- D-Glc in between ischemic conditions (brain slices; individual animals): 9.5 mM and 8.6 mM and 7.9 mM
- Minimum D-Glc during 2nd ischemia (brain slices; average ± SD, n=3): 4.1 ± 0.5 mM
- Minimum D-Glc during 2nd ischemia (brain slices; individual animals): 4.6 mM and 4.2 mM and 3.4 mM
- Maximal difference of D-Glc before and during 2nd ischemia (brain slices; average ± SD, n=3): 4.6 ± 0.3 mM
- Maximal difference of D-Glc before and during 2nd ischemia (brain slices; individual animals): 4.9 mM and 4.4 mM and 4.5 mM
- D-Glc after 2nd ischemic condition (brain slices; average ± SD, n=3): 9.3 ± 1.1 mM
- D-Glc after 2nd ischemic condition (brain slices; individual animals): 10.8 mM and 8.8 mM and 8.2 mM
- D-Glc in between 2nd and 3rd ischemic conditions (brain slices; group K, animal 3): 8.3 mM
- Minimum D-Glc during 3rd ischemia (brain slices; group L, animal 3, 64 min ischemia): 1.2 mM
- Maximal difference of D-Glc before and during 3rd ischemia (brain slices; group L′, animal 3): 7.1 mM
- D-Glc after 3rd ischemic condition (brain slices; group M, animal 3): 9.1 mM

SMILES: N[C@@H](Cc1ccc(O)cc1)C(=O)O [[^13C9, D7, ^15N]tyrosine]
- T1 relaxation time of deuterons at D site ([1]; aliphatic, 16-17 °C): 45 ms
- T1 relaxation time of deuterons at D site ([1]; aromatic, 16-17 °C): 45 ms

SMILES: [2H]C1(O)O[C@]([2H])(C([2H])([2H])O)[C@@]([2H])(O)[C@]([2H])(O)C1([2H])[2H] (stereo partly drawn) [[D8]DDG, [1,2,2,3,4,5,6,6-D8]2-deoxy-D-glucose]
- adverse effects [2]: no adverse effects
- adverse effects [3]: no adverse effects

SMILES: OC[C@H]1OC(O)[C@H](O)[C@@H](O)[C@@H]1O (some centres unmarked) [[^13C6, D7]glucose]
- T1 relaxation time of deuterons at D site ([1]; aliphatic + ring, 20 °C): 56 ms

SMILES: [2H]C([2H])C(O)C(=O)O [D-Lac, [3,3-D2]lactate]
- time for return to baseline level upon reperfusion (brain slices; after 1st ischemic condition): ≤ 8 min
- D-Lac accumulation within the cells due to ischemic conditions (brain slices; after 2nd reperfusion vs before and between ischemic conditions): did not accumulate within the cells due to the ischemic conditions
- time of first observation of D-Lac signal (brain slices; after D-Glc administration): ≤ 8 min
- time for D-Lac to reach plateau (brain slices; after D-Glc administration, n=3): 12 to 14 min
- increase in D-Lac concentration (brain slices; both ischemic conditions, n=6): 5.5 ± 1.1 mM
- D-Lac level without perfusion arrest (brain slices; control experiment, no ischemic conditions): constant throughout
- D-Lac before 1st ischemia (brain slices; average ± SD, n=3): 0.9 ± 0.4 mM
- D-Lac before 1st ischemia (brain slices; individual animals): 0.4 mM and 1.02 mM and 1.4 mM
- Maximal D-Lac during 1st ischemia (brain slices; average ± SD, n=3): 5.1 ± 1.3 mM
- Maximal D-Lac during 1st ischemia (brain slices; individual animals): 4.8 mM and 3.7 mM and 6.8 mM
- D-Lac in between ischemic conditions (brain slices; average ± SD, n=3): 1.1 ± 0.3 mM
- D-Lac in between ischemic conditions (brain slices; individual animals): 0.67 mM and 1.29 mM and 1.41 mM
- Maximal D-Lac during 2nd ischemia (brain slices; average ± SD, n=3): 5.91 ± 0.12 mM
- Maximal D-Lac during 2nd ischemia (brain slices; individual animals): 5.85 mM and 6.07 mM and 5.80 mM
- D-Lac after 2nd ischemic condition (brain slices; average ± SD, n=3): 1.6 ± 0.4 mM
- D-Lac after 2nd ischemic condition (brain slices; individual animals): 1.08 mM and 1.50 mM and 2.16 mM
- Maximal D-Lac during 3rd ischemia (brain slices; group N, animal 3, 64 min ischemia): 10.2 mM
- D-Lac after 3rd ischemia (brain slices; group O, animal 3): 2.7 mM
- D-Lac signal in medium without brain slices relative to D-Lac in NMR tube with slices (brain slices; perfusion medium, five h, no perfusion arrest): 2.2%

SMILES: [2H]O [HDO]
- HDO T1 ([1]; HDO in the solution of [13C6, D7]glucose, 20 °C): 279 ms
- HDO T1 ([1]; HDO in the solution of the compound on that line, 16-17 °C): 420 ms and 437 ms and 422 ms and 410 ms
- HDO's T1 ([1]; summary of Table 1): ca. 400 ms

SMILES: [2H]C([2H])(O)[C@H]1OC(O)C[C@@H](O)[C@@H]1O (stereo partly drawn) [[D2]DDG, [6,6-D2]2-deoxy-D-glucose]
- adverse effects [2]: no adverse effects
- adverse effects [3]: no adverse effects
- concentration ([4]; n=1, read-out: concentration in the liver): 400 µM
- concentration ([4]; n=2, read-out: concentration in the brain): 1190 µM

SMILES: C[N+](C)(C)CCO [[2-^13C,1,1,2,2-D4]choline chloride]
- T1 relaxation time of deuterons at D site [1, 5]: 422 ms
- T1 relaxation time of deuterons at D site [1, 6]: 404 ms

SMILES: C[N+](C)(C)CCO [[D13]choline bromide]
- T1 relaxation time of deuterons at D site [1, 5]: 389 ms
- T1 relaxation time of deuterons at D site [1, 6]: 396 ms
- T1 relaxation time of deuterons at D site ([1]; position 3 (aliphatic), 16-17 °C): 382 ms
